Two substances from US6455041B1, “Immunogenic epitopes of the human zona pellucida protein (ZP1)” (priority 1998, dated 2002) can be followed below.

Test [1] deals with antibodies from rabbits immunized with heat solubilized, native porcine ZP proteins (HSZP). Kind of test: Biotinylated peptide assay, pooled antisera from rabbits immunized with porcine ZP (HSPZ). The note with it: Complete Freund's Adjuvant, FIG. 1B. The format is binding, rabbit. The method, then: (§1) Peptides containing 15 amino acid residues, which overlapped by 9 amino acids, were designed to ensure that all potential epitopes would be identified. Biotinylated peptides (BP) containing 15-mers with a 9-amino acid overlap were synthesized by Chiron Mimotopes Pty. Ltd. (Victoria, Australia).
(§2) For the assay, streptavidin (Sigma Chemicals, S-4762) was diluted to 5 μg/ml in deionized water and dispensed at 100 μl well into 96-well microtiter plates (Immulon 2, Dynatech Labs) and plates are incubated overnight at 32° C. to evaporate to complete dryness. Plates were then rinsed four times in wash buffer of pH 7.3, consisting of 0.02M sodium phosphate containing 0.15M NaCl and 0.05% Tween 20. The plates were blocked using 200 μl 0.02M sodium phosphate buffered saline (PBS) containing 2% nonfat dried milk (pH 8.8) for 2 hours at room temperature and the rinse was repeated. Blocking and all incubations were carried out using a Minimix shaker (Fisher). Biotinylated peptides were then dispensed such that the final: dilution of each was 1:10,000 and was made in wash buffer containing 2% nonfat dried milk. […]
(§3) After rinsing with blocking solution, 100 μl/well of antibody solution was added and plates incubated at RT for 2 hours with shaking. […] The plates were incubated at RT with shaking for 45 minutes and read in a Titertek Multiskan reader at 405 nm. […]

Test [2] deals with antibodies in sera of baboons administered electrophoretically purified, denatured porcine ZP proteins. Put plainly: Biotinylated peptide assay, sera from baboons immunized with chemically deglycosylated, electrophoretically purified porcine ZP proteins. It is filed as binding, baboon. The note with it: two baboons immunized with deglycosylated, FIGS. 3A-3B. The method, then:
as §1
as §2, with “(Fisher).” for “(Fisher). Biotinylated peptides were then dispensed such that the final: dilution of each was 1:10,000 and was made in wash buffer containing 2% nonfat dried milk.”
as §3
Additional sera from baboons administered electrophoretically purified, denatured porcine ZP proteins as the immunogen (35), were evaluated. […]

Test [3] deals with antibodies from baboons immunized with HSZP. Kind of test: Biotinylated peptide assay, antisera from baboons immunized with porcine ZP (HSPZ). The format is binding, baboon. The note with it: for peptide recognition by sera of individual baboons: four baboons (#1994, #2020, #2044, #2032) immunized with HSZP, sera 3 weeks after second booster, dilution 1/1000, FIGS. 2A-2D; for peptide recognition by baboon serum pool: pooled antisera from baboons immunized with HSZP, TiterMax adjuvant, FIG. 1C. The procedure: Lyophilized porcine ZP immogen was prepared and solubilized in 0.1 M sodium carbonate, pH 9.6 and heated at 60° C. for ten minutes as previously described (42, 45). Immunogen was emulsified in Titer Max adjuvant (50%) by passage through syringes with 19 gauge needles connected by tygon tubing. Animals were sedated with Ketarmine (10 mg/kg) prior to injection with 200 μl containing ^150 μg ZP immunogen (primary and boosts). Animals were immunized and boosted at 3 week and 6 week intervals.
Blood samples were collected at approximately 3 week intervals following the booster injections, and were obtained from femoral veins under Ketamine sedation. Serum was isolated by conventional methods an conveyed frozen to the U.S.A. laboratory facility for analysis. For the present studies, serum samples taken at three weeks following the second booster injection were used. The ELISA assay previously described by Drell and Dunbar, 1984 (46) was used to determine the levels of antibody against immobilized HSPZ. Antisera previously obtained from baboons immunized against electrophoretically purified porcine ZP1 (35) were used as a positive control for these assays. Nonimmune sera from animals immunized with adjuvant alone were used as a negative control.
as §1
For the assay, streptavidin (Sigma Chemicals, S-4762) was diluted to 5 μg/ml in deionized water and dispensed at 100 μl well into 96-well microtiter plates (Immulon 2, Dynatech Labs) and plates are incubated overnight at 32° C. to evaporate to complete dryness. Plates were then rinsed four times in wash buffer of pH 7.3, consisting of 0.02M sodium phosphate containing 0.15M NaCl and 0.05% Tween 20. The plates were blocked using 200 μl 0.02M sodium phosphate buffered saline (PBS) containing 2% nonfat dried milk (pH 8.8) for 2 hours at room temperature and the rinse was repeated. Blocking and all incubations were carried out using a Minimix shaker (Fisher). Biotinylated peptides were then dispensed such that the final: dilution of each was 1:10,000 and was made in wash buffer containing 2% nonfat dried milk. Peptides (100 μl per well) were incubated overnight at 4° C. on the shaker.
Initially, each peptide was solubilized in 200 μl of DMSO per manufacturers' instructions and stored this long term at −80° C. Approximately 2 μl was used to make a 1:5,000 stock solution diluted in PBs containing 0.1% BSA and 0.1% sodium aside. These stocks were then stored at −20° C. and are diluted 1:10,000 for assays. […]

Turning to “54 (SGSGFPETQPGPLTLELQI; listed as Homo sapiens) [compound 54]”, in test [1], the “peptide recognition by rabbit serum pool” value was “recognized by both serum pools”. For the same substance, the “peptide recognition by baboon sera” value in test [2] is on record as “again recognized by the baboon sera”. In addition, in test [3], the “peptide recognition by sera of individual baboons” value is given as “all four of the animals recognized” and the “peptide recognition by baboon serum pool” value is “recognized by both serum pools”.

“55 (SGSGGPLTLELQIAKDKNY; listed as Homo sapiens) [compound 55]”: in test [1], the “peptide recognition by rabbit serum pool” value is on record as “recognized by both serum pools”. For the same substance, the “peptide recognition by baboon sera” value in test [2] was “again recognized by the baboon sera”. In test [3], the “peptide recognition by sera of individual baboons” value is given as “all four of the animals recognized” and the “peptide recognition by baboon serum pool” value is listed as “recognized by both serum pools”.
